In patent US20170274083A1, “NASAL COMPOSITION HAVING ANTI-VIRAL PROPERTIES” (SOFIBEL S.A.S.-A COMPANY ULTIMATELY OWNED BY CHURCH & …, priority 2014, published 2017):

System: HRV-A16
Test: Anti-viral effect: inhibition of HRV-A16 replication (viral RNA)
Assay type: cell-based, human rhinovirus
Conditions: applied 1 h before infection; change in viral RNA; fully differentiated human airway epithelial cells
Description: The example 1 composition is tested according to the test of evaluation of the potential activity against HRV-A16 (a rhinovirus responsible for colds) on fully differentiated human airway epithelial cells culture. The compositions are first applied before infection for one hour and the replication is carried out for 4 hours. 3 rinsing steps with the formulations are carried out. The remaining is collected and the RNA is dosed after cell lysis. The same collecting step is carried out 24 hours after and the same dosing step is carried out. The percentage expressed the changes in viral RNA, resulting in the % of inhibition of HRV-A16 replication, leading to the anti-viral efficacy. The tested composition is tested against rupintrivir (a known antiviral compound, providing an almost complete response).

CCOC(=O)/C=C/[C@H](C[C@@H]1CCNC1=O)NC(=O)[C@@H](CC(=O)[C@@H](NC(=O)c1cc(C)on1)C(C)C)Cc1ccc(F)cc1 [Rupintrivir, rupintrivir]
Inhibition (%) of HRV-A16 replication: 99.62%
